The text below walks through data of US7553969B1, “Substituted phenethylamine derivatives” (Chugai Seiyaku Kabushiki Kaisha, priority 1999, dated 2009).

The target in one experiment is T1, motilin receptor (Oryctolagus cuniculus, UniProt G1T803).
T1 construct: homogenized in 50 mM Tris buffer to prepare a protein sample; from tissue; host or cells: rabbit duodenum homogenate (mucous membrane separated)
Kind of experiment: Motilin receptor binding test (125I motilin, rabbit duodenum protein sample). Conditions: 125I motilin 25 pM, concentration reducing specific binding by 50%. Here is the method:
Motilin receptor binding test
A motilin receptor binding test was conducted in the following manner [Vantrappen et al., Regul. Peptides, 15, 143 (1986)]. The duodenum was extracted from a slaughtered rabbit, had the mucous membrane separated and homogenized in 50 mM Tris buffer to prepare a protein sample. The protein sample was incubated together with ^125I motilin 25 pM and thereafter the radioactivity bound to the protein was measured. Specific binding was defined as the difference between the radioactivity in the case of adding a great excess amount of motilin (10^−7 M) and that in the case of no adding. The activity of the compound was expressed by IC50 (in nM), as the concentration sufficient to reduce the specific binding by 50%.

For experiment [1], the system named is specimen of longitudinal muscle in the duodenum extracted from a rabbit (motilin-induced contraction). The experiment in a line: Action on the motilin-induced contraction of a specimen of longitudinal muscle in the duodenum extracted from a rabbit. Conditions: Oryctolagus cuniculus, organ bath, Krebs solution 28° C., read-out: Contraction suppressing test, pA2 (converted). As for the experimental part: Action on the Contraction of a Specimen of Longitudinal Muscle in the Duodenum Extracted from a Rabbit
The action on the motilin-induced contraction of a specimen of longitudinal muscle in the duodenum extracted from a rabbit was investigated by the following method. A duodenum specimen (5×15 mm) extracted from a slaughtered rabbit was suspended in an organ bath (10 ml) such that the longitudinal muscle would run vertically; the bath was filled with a Krebs solution kept at 28° C. A mixed gas (95% O2 and 5% CO2) was continuously bubbled into the Krebs solution and the contraction of the duodenum specimen was recorded isotonically (with a 1-g load) via an isotonic transducer (ME-3407, ME Commercial, Tokyo, Japan). The degree of contraction was expressed in relative values, with the contraction by acetylcholine at a dose of 10^−4 M being taken as 100%. The activity of the compound was calculated as pA2 value indicating its effect on the dose-dependent muscle contraction by the motilin put into the organ bath.

Where a SMILES comes first, the peptide text is derived from it. [ ]: non-standard residue; d: D form. NMeTyr(3-tBu) = CN[C@@H](Cc1ccc(O)c(C(C)(C)C)c1)C(=O)O; Tyr(3-tBu) = CC(C)(C)c1cc(C[C@H](N)C(=O)O)ccc1O; Phe(3,4-F2) = N[C@@H](Cc1ccc(F)c(F)c1)C(=O)O; NMePhe(4-F) = CN[C@@H](Cc1ccc(F)cc1)C(=O)O; Tyr(3-F) = N[C@@H](Cc1ccc(O)c(F)c1)C(=O)O; Phe(4-Cl) = N[C@@H](Cc1ccc(Cl)cc1)C(=O)O; Phe(3-F) = N[C@@H](Cc1cccc(F)c1)C(=O)O; Phe(4-F) = N[C@@H](Cc1ccc(F)cc1)C(=O)O; NMeV = CN[C@H](C(=O)O)C(C)C

T1 sequence (G1T803 1-400): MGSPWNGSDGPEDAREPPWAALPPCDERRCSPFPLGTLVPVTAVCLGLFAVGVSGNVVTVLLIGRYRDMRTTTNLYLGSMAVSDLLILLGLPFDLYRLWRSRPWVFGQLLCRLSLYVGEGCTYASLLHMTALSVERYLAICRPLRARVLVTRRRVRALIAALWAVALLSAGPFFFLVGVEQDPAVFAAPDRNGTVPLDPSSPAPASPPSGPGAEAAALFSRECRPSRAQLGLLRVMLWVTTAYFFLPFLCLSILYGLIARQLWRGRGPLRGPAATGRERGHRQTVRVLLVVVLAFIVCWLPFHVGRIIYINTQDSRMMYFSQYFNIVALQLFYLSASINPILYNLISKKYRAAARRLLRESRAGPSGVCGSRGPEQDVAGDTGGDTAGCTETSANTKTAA

What is called IC50 is the concentration that inhibits the measured activity by half. For the compound `Cc1cc(=O)[nH]c([C@H](Cc2ccc(O)c(C(C)(C)C)c2)NC(=O)[C@H](C(C)C)N(C)C(=O)[C@@H](N)Cc2ccc(F)cc2)n1` (single isomer, unassigned) [Example 19, 2-(1-(2-((2-amino-3-(4-fluorophenyl)propionyl)-N-methylamino)-3-methyl-butyrylamino)-2-(3-tert-butyl-4-hydroxyphenyl)ethyl)-6-methyl-4-pyrimidinone], on motilin receptor, the IC50 came to 2.2 nM. The Kb in experiment [1] was 2 nM.

Turning to `CC(C)[C@@H](C(=O)N[C@@H](Cc1ccc(O)c(C(C)(C)C)c1)c1nccs1)N(C)C(=O)[C@@H](N)Cc1ccc(F)cc1` (single isomer, unassigned) [Example 23, 2-((2-amino-3-(4-fluorophenyl)propionyl)-N-methylamino)-3-methylbutyric acid 2-(3-tert-butyl-4-hydroxyphenyl)-1-(thiazol-2-yl)ethylamide], on motilin receptor, the half-maximal inhibitory concentration (IC50) came out at 0.67 nM. Also, the Kb in experiment [1] was 0.501 nM.

Take `CC(C)[C@@H](C(=O)N(C)[C@@H](Cc1ccc(O)c(C(C)(C)C)c1)C(N)=O)N(C)C(=O)[C@@H](N)Cc1ccc(F)cc1` [Example 1, Phe(4-F)-N-Me-Val-N-Me-Tyr(3-tBu)-NH2] (H-[Phe(4-F)]-[NMeV]-[NMeTyr(3-tBu)]-NH2): the IC50 on motilin receptor is 0.89 nM. In experiment [1], the Kb is 1.58 nM.

Consider `CC(C)[C@@H](C(=O)N(C)[C@@H](Cc1ccc(O)c(C(C)(C)C)c1)C(N)=O)N(C)C(=O)[C@@H](N)Cc1ccc(Cl)cc1` [Example 2, Phe(4-Cl)-N-Me-Val-N-Me-Tyr(3-tBu)-NH2] (H-[Phe(4-Cl)]-[NMeV]-[NMeTyr(3-tBu)]-NH2), for which the IC50 on motilin receptor is 0.71 nM. For the same compound, in experiment [1], the Kb is 2 nM.

Take `CC(C)[C@@H](C(=O)N(C)[C@@H](Cc1ccc(O)c(C(C)(C)C)c1)C(N)=O)N(C)C(=O)[C@@H](N)Cc1ccc(F)c(F)c1` [Example 3, Phe(3,4-F2)-N-Me-Val-N-Me-Tyr(3-tBu)-NH2] (H-[Phe(3,4-F2)]-[NMeV]-[NMeTyr(3-tBu)]-NH2): the IC50 on motilin receptor was 1.5 nM. Moreover, the Kb in experiment [1] was 2 nM.

At motilin receptor, `CC(C)[C@@H](C(=O)N(C)[C@@H](Cc1ccc(O)c(C(C)(C)C)c1)C(N)=O)N(C)C(=O)[C@@H](N)Cc1cccc(F)c1` [Example 4, Phe(3-F)-N-Me-Val-N-Me-Tyr(3-tBu)-NH2] (H-[Phe(3-F)]-[NMeV]-[NMeTyr(3-tBu)]-NH2) yielded an IC50 of 1.6 nM. Further, the Kb in experiment [1] is 5.01 nM.

The compound `CC(C)[C@@H](C(=O)N[C@@H](Cc1ccc(O)c(C(C)(C)C)c1)C(=O)Nc1ccccn1)N(C)C(=O)[C@@H](N)Cc1ccc(F)cc1` [Example 8, 2-((2-amino-3-(4-fluorophenyl)propionyl)-N-methylamino)-3-methylbutyric acid 2-(3-tert-butyl-4-hydroxyphenyl)-1-(2-pyridylcarbamoyl)ethylamide] yielded a half-inhibitory concentration (IC50) on motilin receptor of 0.35 nM. In experiment [1], the Kb is 0.316 nM.

On to `CC(C)[C@@H](C(=O)N[C@H](CNC(N)=O)Cc1ccc(O)c(C(C)(C)C)c1)N(C)C(=O)[C@@H](N)Cc1ccc(F)cc1` [Example 9, N-(2-(2-((2-amino-3-(4-fluorophenyl)propionyl)-N-methylamino)-3-methylbutyrylamino)-3-(3-tBu-4-hydroxyphenyl)propyl)urea], for which the concentration for half-maximal inhibition (IC50) at motilin receptor turned out to be 1 nM. The Kb in experiment [1] was 1 nM.

On to `CC(C)[C@@H](C(=O)N[C@H](CNS(N)(=O)=O)Cc1ccc(O)c(C(C)(C)C)c1)N(C)C(=O)[C@@H](N)Cc1ccc(F)cc1` [Example 12, 2-(2-(2-amino-3-(4-fluorophenylpropanoyl-N-methylamino)-3-methyl)butyrylamino)-3-(3-tert-butyl-4-hydroxyphenyl)propylsulfamide], for which the IC50 on motilin receptor is 0.52 nM. For the same compound, in experiment [1], the Kb was 0.501 nM.

In turn, `CC(C)[C@@H](C(=O)N[C@H](CNS(C)(=O)=O)Cc1ccc(O)c(C(C)(C)C)c1)N(C)C(=O)[C@@H](N)Cc1ccc(F)cc1` [Example 14, N-[2-(3-tert-butyl-4-hydroxyphenyl)-1-(methanesulfonylaminomethyl)ethyl]-2-[N-(4-fluorophenylalaminoyl)methylamino]-3-methylbutanamide] showed an IC50 at motilin receptor of 0.7 nM. Further, the Kb in experiment [1] is 0.501 nM.

Turning to `CC(C)[C@@H](C(=O)N[C@H](CC(N)=O)Cc1ccc(O)c(C(C)(C)C)c1)N(C)C(=O)[C@@H](N)Cc1ccc(F)cc1` [Example 15, 2-((2-amino-3-(4-fluorophenyl)propionyl)-N-methylamino)-3-methylbutyric acid 2-(3-t-butyl-4-hydroxyphenyl)-1-carbamidomethylethylamide], on motilin receptor, the IC50 was 0.82 nM. In experiment [1], the Kb was 3.16 nM.

On to `CC(C)[C@@H](C(=O)N[C@@H](Cc1ccc(O)c(C(C)(C)C)c1)CS(C)(=O)=O)N(C)C(=O)[C@@H](N)Cc1ccc(F)cc1` [Example 16, 2-((2-amino-3-(4-fluorophenyl)propionyl)-N-methylamino)-3-methylbutyric acid 2-(3-t-butyl-4-hydroxyphenyl)-1-methanesulfonylmethylethylamide], for which, on motilin receptor, the half-maximal inhibitory concentration (IC50) worked out at 0.41 nM. Also, the Kb in experiment [1] was 0.398 nM.

`CC(C)[C@@H](C(=O)N[C@H](CO)Cc1ccc(O)c(C(C)(C)C)c1)N(C)C(=O)[C@@H](N)Cc1ccc(F)cc1` [Example 17, 2-(2-((2-amino-3-(4-fluorophenyl)propionyl)-N-methylamino)-3-methyl-butyrylamino)-3-(3-tBu-4-hydroxyphenyl)propanol] gave a concentration for half-maximal inhibition (IC50) at motilin receptor of 0.7 nM. In experiment [1], the Kb was 0.794 nM.

As to `CC(C)[C@@H](C(=O)N[C@@H](Cc1ccc(O)c(C(C)(C)C)c1)c1nnco1)N(C)C(=O)[C@@H](N)Cc1ccc(F)cc1` [Example 21, 2-((2-amino-3-(4-fluorophenyl)propionyl)-N-methylamino)-3-methylbutyric acid 2-(3-t-butyl-4-hydroxyphenyl)-1-(1,3,4-oxadiazol-2-yl)ethylamide], on motilin receptor, the IC50 amounted to 0.27 nM. The Kb in experiment [1] was 0.158 nM.

As for `CC(C)[C@@H](C(=O)N[C@@H](Cc1ccc(O)c(C(C)(C)C)c1)c1ncno1)N(C)C(=O)[C@@H](N)Cc1ccc(F)cc1` [Example 22, 2-((2-amino-3-(4-fluorophenyl)propionyl)-N-methylamino)-3-methylbutyric acid 2-(3-t-butyl-4-hydroxyphenyl)-1-(1,2,4-oxadiazol-5-yl)ethylamide], the IC50 at motilin receptor is 0.52 nM. For the same compound, the Kb in experiment [1] is 5.01 nM.

Turning to `CC(C)[C@@H](C(=O)N[C@@H](Cc1ccc(O)c(C(C)(C)C)c1)c1nnc[nH]1)N(C)C(=O)[C@@H](N)Cc1ccc(F)cc1` [Example 24, 2-((2-amino-3-(4-fluorophenyl)propionyl)-N-methylamino)-3-methylbutyric acid 2-(3-t-butyl-4-hydroxyphenyl)-1-(1,3,4-triazol-2-yl)ethylamide], at motilin receptor, the IC50 stood at 0.94 nM. Further, in experiment [1], the Kb was 0.794 nM.

Regarding `CC(C)[C@@H](C(=O)N(C)[C@@H](Cc1ccc(O)c(C(C)(C)C)c1)C(N)=O)N(C)C(=O)[C@@H](N)Cc1ccc(O)cc1F` [Example 26, Tyr(2-F)-N-Me-Val-N-Me-Tyr(3-tBu)-NH2], the IC50 at motilin receptor stood at 7.3 nM. Also, in experiment [1], the Kb is 10 nM.

The compound `CC(C)[C@@H](C(=O)N(C)[C@@H](Cc1ccc(O)c(C(C)(C)C)c1)C(N)=O)N(C)C(=O)[C@@H](N)Cc1ccc(O)c(F)c1` [Example 27, Tyr(3-F)-N-Me-Val-N-Me-Tyr(3-tBu)-NH2] (H-[Tyr(3-F)]-[NMeV]-[NMeTyr(3-tBu)]-NH2) had an IC50 on motilin receptor of 1.2 nM. For the same compound, the Kb in experiment [1] is 2.51 nM.

As to `CC(C)[C@@H](C(=O)N[C@@H](Cc1ccc(O)c(C(C)(C)C)c1)C(N)=O)N(C)C(=O)[C@@H](N)Cc1ccc(F)cc1` [Example 28, Phe(4-F)-N-Me-Val-Tyr(3-tBu)-NH2] (H-[Phe(4-F)]-[NMeV]-[Tyr(3-tBu)]-NH2), the half-maximal inhibitory concentration (IC50) at motilin receptor was found to be 0.52 nM. Moreover, in experiment [1], the Kb is 1 nM.

As to `CN[C@@H](Cc1ccc(F)cc1)C(=O)N(C)[C@H](C(=O)N[C@@H](Cc1ccc(O)c(C(C)(C)C)c1)C(N)=O)C(C)C` [Example 29, N-Me-Phe(4-F)-N-Me-Val-Tyr(3-tBu)-NH2] (H-[NMePhe(4-F)]-[NMeV]-[Tyr(3-tBu)]-NH2), on motilin receptor, the IC50 came out at 0.45 nM. Besides, the Kb in experiment [1] was 2 nM.

For `CCN[C@@H](Cc1ccc(F)cc1)C(=O)N(C)[C@H](C(=O)N[C@@H](Cc1ccc(O)c(C(C)(C)C)c1)C(N)=O)C(C)C` [Example 30, N-Et-Phe(4-F)-N-Me-Val-Tyr(3-tBu)-NH2], the IC50 on motilin receptor was 0.81 nM. Moreover, the Kb in experiment [1] was 0.794 nM.

The compound `CNC(=O)[C@H](Cc1ccc(O)c(C(C)(C)C)c1)NC(=O)[C@H](C(C)C)N(C)C(=O)[C@@H](N)Cc1ccc(F)cc1` [Example 31, Phe(4-F)-N-Me-Val-Tyr(3-tBu)-NHMe] (H-[Phe(4-F)]-[NMeV]-[Tyr(3-tBu)]-NHMe) came in with an IC50 on motilin receptor of 0.79 nM. Further, the Kb in experiment [1] was 0.316 nM.

At motilin receptor, `CNC(=O)[C@H](Cc1ccc(O)c(C(C)(C)C)c1)NC(=O)[C@H](C(C)C)N(C)C(=O)[C@H](Cc1ccc(F)cc1)NC` [Example 32, N-Me-Phe(4-F)-N-Me-Val-Tyr(3-tBu)-NHMe] (H-[NMePhe(4-F)]-[NMeV]-[Tyr(3-tBu)]-NHMe) gave an IC50 of 0.76 nM. The Kb in experiment [1] is 0.794 nM.
